Experimental data from ChEMBL document CHEMBL3758105 (J Med Chem, 2016).
Converted amounts (≈) assume the structure as drawn.

Assays:
Collagenase 3 = Collagenase 3 (Homo sapiens, UniProt P45452); experiment: Inhibition of full length human recombinant MMP13 using MCA-Arg-Pro-Leu-Gly-Leu-Dpa-Ala-Arg-Glu-Arg-NH2 as substrate preincubated for 60 mins followed by substrate addition by fluorescence assay
CYP2C9 = CYP2C9 (Homo sapiens, UniProt P11712); experiment: Inhibition of CYP2C9 in human liver microsomes assessed as reduction of diclofenac metabolism at 3 uM after 8 mins; format: ADME; conditions: probe diclofenac
Chain of CYP2C9 (P11712 whole entry, the tested form may be a part): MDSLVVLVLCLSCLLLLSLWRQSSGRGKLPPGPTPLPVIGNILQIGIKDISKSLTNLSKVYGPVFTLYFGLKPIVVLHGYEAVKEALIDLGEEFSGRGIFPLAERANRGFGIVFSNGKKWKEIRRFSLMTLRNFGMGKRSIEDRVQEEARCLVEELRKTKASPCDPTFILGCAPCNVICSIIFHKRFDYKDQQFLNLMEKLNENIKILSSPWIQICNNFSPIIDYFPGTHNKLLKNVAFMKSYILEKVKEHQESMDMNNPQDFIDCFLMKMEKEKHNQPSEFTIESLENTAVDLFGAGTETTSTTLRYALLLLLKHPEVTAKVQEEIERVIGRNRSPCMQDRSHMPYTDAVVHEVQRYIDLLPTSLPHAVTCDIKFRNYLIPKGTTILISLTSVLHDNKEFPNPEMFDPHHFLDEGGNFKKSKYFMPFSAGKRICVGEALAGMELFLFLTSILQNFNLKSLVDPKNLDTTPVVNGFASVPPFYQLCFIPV

Stromelysin-1 = Stromelysin-1 (Homo sapiens, UniProt P08254); experiment: Inhibition of MMP3 (unknown origin) catalytic domain using MCA-Arg-Pro-Leu-Gly-Leu-Dpa-Ala-Arg-Glu-Arg-NH2 as substrate preincubated for 60 mins followed by substrate addition by fluorescence assay
Chain of Stromelysin-1 (P08254 whole entry, the tested form may be a part): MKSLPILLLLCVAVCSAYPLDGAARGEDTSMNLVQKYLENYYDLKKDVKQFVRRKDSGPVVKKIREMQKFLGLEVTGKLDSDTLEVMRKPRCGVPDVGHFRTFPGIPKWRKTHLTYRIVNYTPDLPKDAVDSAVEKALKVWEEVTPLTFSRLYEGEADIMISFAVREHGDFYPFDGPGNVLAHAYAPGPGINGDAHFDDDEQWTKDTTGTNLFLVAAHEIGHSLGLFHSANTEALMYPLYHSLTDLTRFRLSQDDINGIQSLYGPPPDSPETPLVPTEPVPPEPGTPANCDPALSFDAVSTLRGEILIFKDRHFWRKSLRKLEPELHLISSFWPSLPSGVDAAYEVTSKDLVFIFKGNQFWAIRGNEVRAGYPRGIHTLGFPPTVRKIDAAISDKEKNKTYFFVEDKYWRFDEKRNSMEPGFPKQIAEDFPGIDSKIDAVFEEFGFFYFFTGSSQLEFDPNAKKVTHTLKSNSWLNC

[1] = Half life of the compound assessed as compound rearrangement; format: physicochemical
[2] = Plasma protein binding in human; format: ADME, cell-free; conditions: read-out: PPB (converted)
[3] = Intrinsic clearance in human liver microsomes measured over 40 mins by HPLC/MS analysis; format: ADME; conditions: read-out: CLH
[4] = Clearance in Sprague-Dawley rat at 1 mg/kg, iv administered as bolus dose by LC-MS/MS analysis; format: ADME, organism-based; conditions: in vivo
[5] = Intrinsic clearance in rat liver microsomes measured over 40 mins by HPLC/MS analysis; format: ADME; conditions: read-out: CLH
[6] = Thermodynamic solubility of the compound in crystalline solid form in phosphate buffer at pH 7.4; format: physicochemical; conditions: read-out: Therm_solubility
Canis familiaris [7] = experiment: Free AUC in beagle dog at 1 mg/kg, po administered as cassette dosing; format: ADME, organism-based, Canis lupus familiaris; conditions: in vivo
[8] = Oral bioavailability in Sprague-Dawley rat at 1 mg/kg; format: ADME, organism-based; conditions: in vivo
Canis familiaris [9] = experiment: Free Cmax in beagle dog at 1 mg/kg, po administered as cassette dosing; format: ADME, organism-based, Canis lupus familiaris; conditions: in vivo
[10] = Plasma protein binding in beagle dog at 1 mg/kg, po administered as cassette dosing; format: ADME, organism-based, Canis lupus familiaris; conditions: read-out: PPB (converted)
physchem = conditions: buffer, pH 7.4
[11] = target: T1, Organic anion transporter 3 (Homo sapiens, UniProt Q8TCC7); experiment: Inhibition of human OAT3 expressed in HEK cells assessed as reduction of [3H]-estrone sulfate uptake by radioactivity counting analysis; format: cell-based, HEK293
T1 sequence (Q8TCC7 whole entry): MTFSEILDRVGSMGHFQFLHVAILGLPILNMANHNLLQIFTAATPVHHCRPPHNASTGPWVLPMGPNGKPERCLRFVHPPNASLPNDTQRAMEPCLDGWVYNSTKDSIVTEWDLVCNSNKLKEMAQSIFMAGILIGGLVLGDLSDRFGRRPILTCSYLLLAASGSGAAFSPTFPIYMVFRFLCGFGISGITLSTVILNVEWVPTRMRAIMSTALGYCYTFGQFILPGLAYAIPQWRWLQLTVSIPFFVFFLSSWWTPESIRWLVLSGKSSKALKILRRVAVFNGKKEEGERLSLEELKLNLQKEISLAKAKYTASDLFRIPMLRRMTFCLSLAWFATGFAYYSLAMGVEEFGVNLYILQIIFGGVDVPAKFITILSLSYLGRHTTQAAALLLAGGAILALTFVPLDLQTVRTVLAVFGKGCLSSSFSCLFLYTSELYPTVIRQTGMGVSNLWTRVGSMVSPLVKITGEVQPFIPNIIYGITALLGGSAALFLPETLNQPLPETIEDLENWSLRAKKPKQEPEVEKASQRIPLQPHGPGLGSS

Rattus norvegicus = experiment: Drug level in Sprague-Dawley rat treated with N-(4-Fluoro-3-methoxybenzyl)-6-(2-(((2S,5R)-5-(hydroxymethyl)-1,4-dioxan-2-yl)methyl)-2H-tetrazol-5-yl)-2-methylpyrimidine-4-carboxamide at 1 mg/kg, po; format: ADME, organism-based; conditions: in vivo
[12] = Drug level in cynomolgus monkey hepatocytes treated with N-(4-Fluoro-3-methoxybenzyl)-6-(2-(((2S,5R)-5-(hydroxymethyl)-1,4-dioxan-2-yl)methyl)-2H-tetrazol-5-yl)-2-methylpyrimidine-4-carboxamide; format: ADME, cell-based, Macaca fascicularis, Hepatocyte
[13] = Drug level in cynomolgus monkey urine treated with N-(4-Fluoro-3-methoxybenzyl)-6-(2-(((2S,5R)-5-(hydroxymethyl)-1,4-dioxan-2-yl)methyl)-2H-tetrazol-5-yl)-2-methylpyrimidine-4-carboxamide; format: ADME, tissue-based, Macaca fascicularis; conditions: in vivo
Hepatocyte = experiment: Drug level in human hepatocytes treated with N-(4-Fluoro-3-methoxybenzyl)-6-(2-(((2S,5R)-5-(hydroxymethyl)-1,4-dioxan-2-yl)methyl)-2H-tetrazol-5-yl)-2-methylpyrimidine-4-carboxamide; format: ADME, cell-based
Cynomolgus monkey = experiment: Drug level in cynomolgus monkey treated with N-(4-Fluoro-3-methoxybenzyl)-6-(2-(((2S,5R)-5-(hydroxymethyl)-1,4-dioxan-2-yl)methyl)-2H-tetrazol-5-yl)-2-methylpyrimidine-4-carboxamide at 1 mg/kg, po; format: ADME, organism-based, Macaca fascicularis; conditions: in vivo
[14] = Clearance in Sprague-Dawley rat at 0.2 mg/kg, iv administered as cassette bolus dose by LC-MS/MS analysis; format: ADME, organism-based; conditions: in vivo

Compound: Cc1cc(-c2nnn(C[C@H]3CC[C@H](CO)CC3)n2)cc(C(=O)NCc2ccc(F)c(F)c2)n1
- Ki (Collagenase 3): 29.3 nM
- inhibition at 8 min, 3 µM (CYP2C9): 83%

Compound: COc1cccc(CNC(=O)c2cc(-c3nnn(C[C@H]4CC[C@H](C#N)CC4)n3)cc(C)n2)c1
- Ki (Stromelysin-1): 7210 nM
- Ki (Collagenase 3): 2.7 nM

Compound: O=C(O)Cc1ccccc1Nc1c(Cl)cccc1Cl [DICLOFENAC]
- half-life [1]: 0.5 h

Compound: COc1cccc(CNC(=O)c2cc(-c3nnn(C[C@H]4CC[C@@H](O)CC4)n3)cc(C)n2)c1
- Ki (Stromelysin-1): > 10000 nM
- Ki (Collagenase 3): 10.9 nM

Compound: COc1cccc(CNC(=O)c2cc(-c3nnn(C[C@H]4CC[C@H](O)CC4)n3)cc(C)n2)c1
- Ki (Stromelysin-1): > 10000 nM
- Ki (Collagenase 3): 4.5 nM

Compound: COc1cccc(CNC(=O)c2cc(-c3nnn(C[C@H]4CC[C@@H](CO)CC4)n3)cc(C)n2)c1
- Ki (Stromelysin-1): 8730 nM
- Ki (Collagenase 3): 4.1 nM

Compound: COc1cccc(CNC(=O)c2cc(-c3nnn(C[C@H]4CC[C@@H](NC(C)=O)CC4)n3)cc(C)n2)c1
- Ki (Stromelysin-1): > 10000 nM
- Ki (Collagenase 3): 1.4 nM

Compound: COc1cccc(CNC(=O)c2cc(-c3nnn(C[C@H]4CO[C@H](CO)CO4)n3)cc(C)n2)c1 (racemic)
- Ki (Stromelysin-1): > 10000 nM
- fraction unbound [2]: 0.14
- microsomal CLint [3]: < 8 µL/min/mg
- clearance [4]: 7.7 mL/min/kg
- Ki (Collagenase 3): 11.7 nM
- microsomal CLint [5]: 15.7 µL/min/mg
- solubility thermodynamic [6]: 28 µM (≈ 12.7 µg/mL)
- fAUC (Canis familiaris [7]): 1.23 µM·h
- bioavailability [8]: 48%
- fCmax (Canis familiaris [9]): 66 nM
- fraction unbound [10]: 0.24
- logD (physchem): 2.04

Compound: COc1cccc(CNC(=O)c2cc(-c3nnn(C[C@H]4CC[C@H](CO)CC4)n3)cc(C)n2)c1
- Ki (Stromelysin-1): > 10000 nM
- microsomal CLint [3]: 32.7 µL/min/mg
- clearance [4]: 76.6 mL/min/kg
- Ki (Collagenase 3): 2.1 nM
- microsomal CLint [5]: 94.9 µL/min/mg
- inhibition at 8 min, 3 µM (CYP2C9): 66%
- logD (physchem): 3.57

Compound: Cn1c(=O)n(Cc2ccc(C(=O)O)cc2)c(=O)c2cc(C#CCc3ccccc3)ccc21
- IC50 [11]: 18000 nM

Compound: Cc1cc(-c2nnn(C[C@H]3CC[C@H](CO)CC3)n2)cc(C(=O)NCc2cccc(F)c2)n1
- Ki (Collagenase 3): 110 nM

Compound: COc1cc(CNC(=O)c2cc(-c3nnn(C[C@H]4CO[C@H](C(=O)O)CO4)n3)nc(C)n2)ccc1F
- Drug metabolism (Rattus norvegicus): metabolite_detected
- Drug metabolism [12]: metabolite_detected
- Drug metabolism [13]: metabolite_detected
- Ki (Collagenase 3): 0.2 nM
- Drug metabolism (Hepatocyte): metabolite_detected
- Drug metabolism (Cynomolgus monkey): metabolite_detected

Compound: COc1ccc(CNC(=O)c2cc3c(=O)n(Cc4ccc(C(=O)O)cc4)cnc3cn2)cc1
- IC50 [11]: 59000 nM

Compound: COc1cccc(CNC(=O)c2cc(-c3nnn(C[C@H]4CC[C@H](NC(C)=O)CC4)n3)cc(C)n2)c1
- Ki (Stromelysin-1): > 10000 nM
- microsomal CLint [3]: 24.7 µL/min/mg
- Ki (Collagenase 3): 2 nM
- clearance [14]: 77.6 mL/min/kg

Compound: Cc1cc(-c2nnn(C[C@H]3CC[C@H](C(=O)O)CC3)n2)cc(C(=O)NCc2ccc(F)cc2)n1
- half-life [1]: 67 h
- IC50 [11]: 6000 nM

Compound: COc1cccc(CNC(=O)c2cc(-c3nnn(CC4COCCO4)n3)cc(C)n2)c1 (racemic)
- Ki (Stromelysin-1): > 10000 nM
- microsomal CLint [3]: < 8 µL/min/mg
- clearance [4]: 25.8 mL/min/kg
- Ki (Collagenase 3): 14.1 nM
- microsomal CLint [5]: 74 µL/min/mg
- logD (physchem): 2.49

Compound: Cc1cc(-c2nnn(C[C@H]3CC[C@H](CO)CC3)n2)cc(C(=O)NCc2ccccc2)n1
- Ki (Collagenase 3): 119 nM
- inhibition at 8 min, 3 µM (CYP2C9): 78%

Compound: COc1cccc(CNC(=O)c2cc(-c3nnn(C[C@H]4CC[C@H](NS(C)(=O)=O)CC4)n3)cc(C)n2)c1
- Ki (Stromelysin-1): > 10000 nM
- microsomal CLint [3]: < 8 µL/min/mg
- Ki (Collagenase 3): 0.25 nM
- clearance [14]: 42.6 mL/min/kg

Compound: COc1cccc(CNC(=O)c2cc(-c3nnn(CC4CCCCO4)n3)cc(C)n2)c1 (single isomer, unassigned; (+))
- Ki (Stromelysin-1): > 10000 nM
- Ki (Collagenase 3): 16.8 nM
